Where two headings read alike, the source gives them in different places.
Experiments:
[1] = system: Transgenic progeny plants (T1 or later generations) containing the nsf transgene (vector 17108); test: T1 seed from 17108 events, spray with other HPPD herbicides; details: sprayed at 40-80 g/ha rates or higher; evaluated for bleaching and chlorosis
Experimental: T0 transformants containing the nsf transgene (vector 17108) are allowed to set T1 seed, and the seed is harvested. This seed is planted, and the progeny analyzed to identify seedlots that are derived from germline transformed plants. Transgenic progeny plants (T1 or later generations), are analyzed to confirm mesotrione tolerance. […] Plants are evaluated for bleaching, and chlorosis, as described in Example 7.

corn CYP72A1 enzyme = details: U.S. Pat. No. 6,380,465, cited from earlier work
[2] = system: CYP76B1 gene in tobacco (Nicotiana tabacum) and Arabidopsis; details: cited from earlier work
[3] = system: P450 transgenic explants (transgene PCR+ve transformed plants); test: Tobacco explants on MS agar containing mesotrione; format: in vivo
Description: Plant transformation vectors with the appropriate P450 gene expression cassette are used to transform Agrobacterium tumefaciens LBA4404. Tobacco tissue is subjected to Agrobacterium-mediated transformation using methods well described in the art. Transformed shoots are regenerated from callus resistant to the selection agent (e.g., glufosinate, butafenacil, kanamycin). Shoots are rooted on MS agar containing the selection agent.
(§1) To determine tolerance of P450 transgenic explants (i.e. a leaf plus short segment of stem containing the auxiliary bud), these are placed into MS agar (+3% sucrose) containing various concentrations of mesotrione, from 0.02 to 2 ppm. […] In these particular experiments, only the shoot that develops from the bud is bleached, the leaf on the explanted tissue remains green.
They root normally and are phenotypically indistinguishable from untransformed plants. A sub-set of the transformants is tolerant to concentrations of >0.1 ppm yielding plants looking normal and rooting well in the presence of herbicide. Some of the transformed plants can be initially bleached when subjected to the herbicide at the said higher concentrations, but on prolonged exposure they progressively “green up” and “recover”. […]

[4] = system: Negative T0 transformants (negative by Taqman for presence of transgenes); test: Mesotrione spray on soybean T0 plants, chlorosis rating; format: in vivo, Soybean (Glycine max); details: 52.5 g/ha mesotrione, 22 days after the spray
Experimental: (§2) T0 plants were taken from tissue culture to the greenhouse where they are transplanted into saturated soil (Redi-Earth® Plug and Seedling Mix, Sun Gro Horticulture, Bellevue, Wash.) mixed with 1% granular Marathon® (Olympic Horticultural Products, Co., Mainland, Pa.) at 5-10 g/gal Redi-Earth® Mix in 2″ square pots. The plants were covered with humidity domes and placed in a Conviron chamber (Pembina, N. Dak.) with the following environmental conditions: 24° C. day; 18° C. night; 23 hr photoperiod; 80% relative humidity.
(§3) After plants became established in the soil and new growth appeared (˜1-2 weeks), plants were sampled and tested for the presence of desired transgene by Taqman® analysis using probes for P450 (CYP72A1), or promoters (prCMP and prUBq3). All positive plants and several negative plants were transplanted into 4″ square pots containing MetroMix® 380 soil (Sun Gro Horticulture, Bellevue, Wash.). Sierra 17-6-12 slow release fertilizer was incorporated into the soil at the recommended rate. The negative plants serve as controls for the spray experiment. The plants were then relocated into a standard greenhouse to acclimatize (˜1 week). The environmental conditions were: 27° C. day; 21° C. night; 12 hr photoperiod (with ambient light); ambient humidity. After acclimatizing (˜1 week), the plants were ready to be sprayed with the desired herbicides.
The plants from Example 6 were sprayed with mesotrione to determine if they were tolerant to this herbicide. Callisto® (active ingredient mesotrione, Syngenta Crop Protection, Inc., Greensboro, N.C.) was mixed in water and X-77 surfactant (0.25% v/v final concentration). Plants were placed in a DeVries spray chamber (DeVries Manufacturing, Hollandale, Minn.), and the distance from the nozzle to the top of the plants was adjusted to approximately 12 inches. The system was set up so that the boom moved at 2 mph, and delivered 25 gallon fluid per acre. The spray rate was calibrated to spray 52.5 g/ha mesotrione over the top of the plants. Negative T0 transformants (i.e., negative by Taqman® for presence of transgenes), T0 transformants with vector 17107, and one transformant with vector 17108 (event 17108-A), were sprayed in this manner. After spraying, plants were placed in the greenhouse, under the same conditions as described in Example 3 above, and evaluated frequently for symptoms. […] However, over time, leaves greened up on all plants. New growth developed as partially bleached, or chlorotic, and the leaves that initially were bleached also greened up. […] At 22 days after the spray, the plants were rated for symptoms on the leaves that were initially bleached. […]

[5] = system: transformant with vector 17108 (event 17108-A, nsf P450 gene); test: as above; format: in vivo, Soybean (Glycine max); details: 52.5 g/ha mesotrione
Description: A similar binary vector (17108) was constructed with the corn cytochrome P450 gene ‘nsf’ instead of the CYP72A1 gene (FIG. 4). The nsf gene in this vector was codon optimized for soybean expression (SEQ ID NO:2) based upon the predicted amino acid sequence of the maize gene coding region (SEQ ID NO:1).
as §2, §3
The plants from Example 6 were sprayed with mesotrione to determine if they were tolerant to this herbicide. Callisto® (active ingredient mesotrione, Syngenta Crop Protection, Inc., Greensboro, N.C.) was mixed in water and X-77 surfactant (0.25% v/v final concentration). Plants were placed in a DeVries spray chamber (DeVries Manufacturing, Hollandale, Minn.), and the distance from the nozzle to the top of the plants was adjusted to approximately 12 inches. The system was set up so that the boom moved at 2 mph, and delivered 25 gallon fluid per acre. The spray rate was calibrated to spray 52.5 g/ha mesotrione over the top of the plants. Negative T0 transformants (i.e., negative by Taqman® for presence of transgenes), T0 transformants with vector 17107, and one transformant with vector 17108 (event 17108-A), were sprayed in this manner. After spraying, plants were placed in the greenhouse, under the same conditions as described in Example 3 above, and evaluated frequently for symptoms. […] However, over time, leaves greened up on all plants. […]

[6] = system: T0 transformants with vector 17107 (corn CYP72A1 cytochrome P450 gene); test: as above; format: in vivo, Soybean (Glycine max); details: 17107 positive, 52.5 g/ha mesotrione, 22 days after the spray
Description: A binary vector (17107) for dicot (soybean) transformation was constructed, with the Arabidopsis UBQ3 promoter driving the corn CYP72A1 cytochrome P450 gene, followed by NOS terminator (FIG. 3). The gene was codon optimized for soybean expression based upon the predicted amino acid sequence of the maize gene coding region. The amino acid sequence of the protein encoded by the CYP72A1 gene is provided in SEQ ID NO:3, and the nucleotide sequence of the optimized CYP72A1 gene in this binary transformation vector is provided in SEQ ID NO:4. The transformation vector also contains two PAT gene cassettes (one with the 35S promoter and one with the CMP promoter, and both PAT genes are followed by the nos terminator) for glufosinate based selection during the transformation process.
as §2, §3
The plants from Example 6 were sprayed with mesotrione to determine if they were tolerant to this herbicide. Callisto® (active ingredient mesotrione, Syngenta Crop Protection, Inc., Greensboro, N.C.) was mixed in water and X-77 surfactant (0.25% v/v final concentration). Plants were placed in a DeVries spray chamber (DeVries Manufacturing, Hollandale, Minn.), and the distance from the nozzle to the top of the plants was adjusted to approximately 12 inches. The system was set up so that the boom moved at 2 mph, and delivered 25 gallon fluid per acre. The spray rate was calibrated to spray 52.5 g/ha mesotrione over the top of the plants. Negative T0 transformants (i.e., negative by Taqman® for presence of transgenes), T0 transformants with vector 17107, and one transformant with vector 17108 (event 17108-A), were sprayed in this manner. After spraying, plants were placed in the greenhouse, under the same conditions as described in Example 3 above, and evaluated frequently for symptoms. […] However, over time, leaves greened up on all plants. New growth developed as partially bleached, or chlorotic, and the leaves that initially were bleached also greened up. […] At 22 days after the spray, the plants were rated for symptoms on the leaves that were initially bleached. Visible chlorosis was only seen on the leaves immediately above the leaves that were exposed during the spray (i.e., the leaves that had necrotic spots), and in some events, on leaves in sideshoots. The partial chlorosis was evident as light green patches, and often as light green (almost yellow) edges on the leaves.

[7] = system: untransformed explants (wild-type tobacco); test: Tobacco explants on MS agar containing mesotrione; format: in vivo; details: 0.02 ppm mesotrione in MS agar (+3% sucrose); no recovery following prolonged exposure
Description: as §1

[8] = system: All plants that were sprayed (negative T0 transformants, vector 17107, event 17108-A); test: Mesotrione spray on soybean T0 plants, early symptoms on all sprayed plants; format: in vivo, Soybean (Glycine max); details: 52.5 g/ha mesotrione over the top
Experimental: as §2
as §3, with “The negative plants serve as controls for the spray experiment. The plants were then relocated into a standard greenhouse to acclimatize (˜1 week). The environmental conditions were: 27° C. day; 21° C. night; 12 hr photoperiod (with ambient light); ambient humidity.” left out
The plants from Example 6 were sprayed with mesotrione to determine if they were tolerant to this herbicide. […] After spraying, plants were placed in the greenhouse, under the same conditions as described in Example 3 above, and evaluated frequently for symptoms. […]

corn plants = test: Mesotrione levels in treated corn plants; format: in vivo; details: over time; P450 based degradation mechanism
rice CYP81A6 enzyme = details: Pan et al. (2007); cited from earlier work
[9] = heterologous expression of CYP76B1, Didierjean et al. (2002)
[10] = event 17108-A, 17108 positive, 22 days after the spray

Cc1ccc(C(=O)COc2c(C(=O)c3ccc(Cl)c(C)c3Cl)c(C)nn2C)cc1 [Benzofenap]
tolerance when sprayed [1]: display tolerance

Cc1nn(C)c(O)c1C(=O)c1ccc(C(F)(F)F)cc1S(C)(=O)=O [Pyrasulfatole]
tolerance when sprayed [1]: display tolerance

COc1cc(Cl)nc(NC(=O)NS(=O)(=O)c2ccccc2C(=O)O)n1 [chlorimuron]
ability of the enzyme to degrade the herbicide (corn CYP72A1 enzyme): degrade

CCOC(=O)CC(SP(=S)(OC)OC)C(=O)OCC (stereo not shown) [malathion]
ability of these plants to degrade the insecticide (corn CYP72A1 enzyme; plants): able to degrade

Cc1c(C(=O)c2cnn(C)c2O)ccc(S(C)(=O)=O)c1C1=NOCC1 [Topramezone]
tolerance when sprayed [1]: display tolerance

Cc1ccc(NC(=O)N(C)C)cc1Cl [chlortoluron]
ability of the enzyme to degrade the herbicide (corn CYP72A1 enzyme): degrade | increase in tolerance [2, 9]: 10 fold

CS(=O)(=O)c1ccc(C(=O)C2C(=O)CCCC2=O)c([N+](=O)[O-])c1 [mesotrione]
bleaching at the level which causes symptoms on wild-type tobacco ([3]; a number of the transgene PCR+ve transformed plants): no indication of bleaching | concentration tolerated, plants looking normal and rooting well ([3]; a sub-set of the transformants, mesotrione in MS agar): > 0.1 ppm | Number of leaves with <50% chlorisis ([4]; event 6D032-A #4, Negative): 1 | Number of leaves with ≧50% chlorosis ([4]; event 6D032-A #4, Negative): 1 | Number of leaves with <50% chlorisis ([4]; event 6D032-A #14, Negative): 0 | Number of leaves with ≧50% chlorosis ([4]; event 6D032-A #14, Negative): 2 | recovery from the mesotrione injury ([5]; event 17108-A only): fully recover | Number of leaves with <50% chlorisis [5, 10]: 0 | Number of leaves with ≧50% chlorosis [5, 10]: 0 | greening of bleached leaves compared with events with vector 17107 ([5]; event 17108-A, 1 week after spray): turned green faster | Number of leaves with <50% chlorisis ([6]; event 17107-A): 0 | Number of leaves with ≧50% chlorosis ([6]; event 17107-A): 2 | Number of leaves with <50% chlorisis ([6]; event 17107-B): 2 | Number of leaves with ≧50% chlorosis ([6]; event 17107-B): 2 | Number of leaves with <50% chlorisis ([6]; event 17107-C): 1 | Number of leaves with ≧50% chlorosis ([6]; event 17107-C): 1 | Number of leaves with <50% chlorisis ([6]; event 17107-D): 2 | Number of leaves with ≧50% chlorosis ([6]; event 17107-D): 3 | Number of leaves with <50% chlorisis ([6]; event 17107-E): 1 | Number of leaves with ≧50% chlorosis ([6]; event 17107-E): 2 | Number of leaves with <50% chlorisis ([6]; event 17107-F): 2 | Number of leaves with ≧50% chlorosis ([6]; event 17107-F): 1 | Number of leaves with <50% chlorisis ([6]; event 17107-G): 2 | Number of leaves with ≧50% chlorosis ([6]; event 17107-G): 1 | Number of leaves with <50% chlorisis ([6]; event 17107-H): 4 | Number of leaves with ≧50% chlorosis ([6]; event 17107-H): 2 | Number of leaves with <50% chlorisis ([6]; event 17107-I): 1 | Number of leaves with ≧50% chlorosis ([6]; event 17107-I): 1 | bleaching of explants [7]: fully bleached | symptoms on leaves exposed at the time of herbicide application [8]: developed necrotic symptoms on small portions of the leaves | bleaching of new growth that emerged from the plants ([8]; leaves greened up over time): completely bleached | mesotrione levels in treated corn plants (corn plants): decrease over time

CON(C)C(=O)Nc1ccc(Cl)c(Cl)c1 [linuron]
level of tolerance [2, 9]: 20 fold

CC(C)N1C(=O)c2ccccc2NS1(=O)=O [bentazon]
ability of the enzyme to degrade the herbicide (rice CYP81A6 enzyme): able to degrade | ability of the enzyme to degrade the herbicide (corn CYP72A1 enzyme): degrade

CS(=O)(=O)c1ccc(C(=O)C2=C(Sc3ccccc3)C3CCC(C3)C2=O)c(Cl)c1 (stereo not shown) [Benzobicyclon]
tolerance when sprayed [1]: display tolerance

CC(C)c1ccc(NC(=O)N(C)C)cc1 [isoproturon]
increase in tolerance ([2]; in vivo): 10 fold

CS(=O)(=O)c1ccc(C(=O)C2C(=O)CCCC2=O)c(Cl)c1 [Sulcotrione]
tolerance when sprayed [1]: display tolerance

CS(=O)(=O)c1cc(Cl)ccc1C(=O)c1cnoc1C1CC1 [Isoxachlortole]
tolerance when sprayed [1]: display tolerance
